Format in all cases: physicochemical
Series [1] in a line: Test on solubility in water. An excerpt: Solubilities of crystals of intramolecular salts of the compounds of the formulae (II), (III) and (IV) and the corresponding amorphous free bases in water are shown below.
Series [2] in a line: Solid light stability test (25° C., 2000 lux light source, tight-closed vials). The settings on record: after 4 weeks. The protocol: A solid light stability test of amorphous free bases and crystals of the compounds represented by the formula (II), the formula (III) and the formula (IV) is shown in Table 2. This test was carried out at 25° C. under the light source of 2000 luxes in tight-closed vials.

A short description of series [3]: Solid thermostability test (accelerated test at 80° C. in tightly closed vials). The settings on record: after 4 weeks. Here is the method: A solid thermostability test of amorphous free bases and crystals of the compounds represented by the formula (II), the formula (III) and the formula (IV) is shown in Table 1. This test is an accelerated test conducted at 80° C. in tightly closed vials.

Series [4] is described as follows: Hygroscopicity test (moisture sorption analyzer). The settings on record: for Changes in weight under dehumidifying condition (desorption) compared with humidifying condition: desorption versus adsorption of water, FIG. 3 / FIG. 4; for Weight change rate upon humidification: relative humidity changed from 30% to 75% (adsorption process of water). From the text:
Comparing the hygroscopicity of amorphous free base of the compound represented by the above formula (II) with that of crystals of hydrochloride of the same compound, the weight of the amorphous free base increased by 7.6% under the moisturized condition (adsorption process of water), while the weight of the crystal increased as slightly as 1.5% in the case where the comparison was done changing the humidity from 30% to 75% which is the humidity for usual preservation. Thus, the weight change rate of the amorphous free base of the compound represented by the formula (II) upon humidification (relative humidity changes from 30% to 75%) was 7.6%. On the other hand, the weight change rate of the crystals of hydrochloride of the compound represented by the formula (II) upon humidification (relative humidity changes from 30% to 75%) was 1.5%, therefore, the influence by humidification was very little.
Hygroscopicity test was conducted by IGAsorp Moisture Sorption Analyzer, manufacture by Hiden Analytical Limited (refer to FIG. 3).

The values that follow come from patent publication US20060229264A1, “Crystalline 6-n-pyridylmethylaminoindolocarbazole compounds” (priority 2003, published 2006).

The compound `O=C1c2c(c3c4ccc(O)cc4n(C4OC(CO)C(O)C(O)C4O)c3c3[nH]c4cc(O)ccc4c23)C(=O)N1NCc1ccncc1` (centres unmarked) came in with a solubility in series [1] of at most 1 µg/mL.
In series [1], `O=C1c2c(c3c4ccc(O)cc4n(C4OC(CO)C(O)C(O)C4O)c3c3[nH]c4cc(O)ccc4c23)C(=O)N1NCc1cccc(CO)n1` (centres unmarked) gave a solubility of at most 1 µg/mL. In addition, the “Residual Rate (light stability of solid)” value in series [2] turned out to be 78.9%. Besides, the “Residual Rate (thermostability of solid)” value in series [3] is given as 66.6%.
As for `O=C1c2c(c3c4ccc(O)cc4n(C4OC(CO)C(O)C(O)C4O)c3c3[nH]c4cc(O)ccc4c23)C(=O)N1NCc1ccncc1` (centres unmarked) [Crystals of free base of the compound of the formula (IV)], the “Residual Rate (light stability of solid)” value in series [2] turned out to be 99.5%. In series [3], the “Residual Rate (thermostability of solid)” value was determined as 99.7%.
In the case of `O=C1c2c(c3c4ccc(O)cc4n(C4OC(CO)C(O)C(O)C4O)c3c3[nH]c4cc(O)ccc4c23)C(=O)N1NCc1ccncc1CO` (centres unmarked) [Crystals of free base of the compound of the formula (II)], in series [2], the “Residual Rate (light stability of solid)” value came to 95.6%.
Consider `O=C1c2c(c3c4ccc(O)cc4n(C4OC(CO)C(O)C(O)C4O)c3c3[nH]c4cc(O)ccc4c23)C(=O)N1NCc1ccncc1CO` (centres unmarked) [Amorphous free base of the compound of the formula (II)], for which the Solubility in water entry in series [1] (listed as Amorphous free base of the compound represented by the formula (II)) was “not more than 0.001 mg/mL”. In addition, the “Residual Rate (light stability of solid)” value in series [2] turned out to be 89.5%. Besides, in series [4], the “Changes in weight under dehumidifying condition (desorption) compared with humidifying condition” value (shortened to “Changes in weight”) was “greatly different” and the “Weight change rate upon humidification” value is listed as 7.6%. Besides, the “Residual Rate (thermostability of solid)” value in series [3] was found to be 87.8%.
Turning to `Cl.O=C1c2c(c3c4ccc(O)cc4n(C4OC(CO)C(O)C(O)C4O)c3c3[nH]c4cc(O)ccc4c23)C(=O)N1NCc1ccncc1` (centres unmarked), the solubility in series [1] is 10000 to 50000 µg/mL. Also, the “Residual Rate (light stability of solid)” value in series [2] worked out at 95.8%. Moreover, in series [4], the “Changes in weight” value is “nearly the same” and the “Weight change rate upon humidification” value is listed as 0.6%. Further, the “Residual Rate (thermostability of solid)” value in series [3] is listed as 98.4%.
Take `Cl.O=C1c2c(c3c4ccc(O)cc4n(C4OC(CO)C(O)C(O)C4O)c3c3[nH]c4cc(O)ccc4c23)C(=O)N1NCc1ccncc1CO` (centres unmarked): the solubility in series [1] lay within 10000 to 50000 µg/mL. Further, the “Residual Rate (light stability of solid)” value in series [2] stood at 94.3%. In addition, in series [4], the “Changes in weight” value is “nearly the same” and the “Weight change rate upon humidification” value was determined as 1.5%.
Turning to `O=C1c2c(c3c4ccc(O)cc4n(C4OC(CO)C(O)C(O)C4O)c3c3[nH]c4cc(O)ccc4c23)C(=O)N1NCc1ccncc1CO` (centres unmarked) [Crystals of methanesulfonate of the compound of the formula ], the “Residual Rate (thermostability of solid)” value in series [3] worked out at 99.1%.
As for `O=C1c2c(c3c4ccc(O)cc4n(C4OC(CO)C(O)C(O)C4O)c3c3[nH]c4cc(O)ccc4c23)C(=O)N1NCc1ccncc1` (centres unmarked) [Amorphous free base of the compound of the formula (IV)], the “Residual Rate (light stability of solid)” value in series [2] came to 84.6%. Further, in series [4], the “Changes in weight” value is given as “significantly different” and the “Weight change rate upon humidification” value is given as 2.8%. The “Residual Rate (thermostability of solid)” value in series [3] is 82.9%.

What is called solubility is how much of the substance goes into solution per volume.
